Assays:
[1] = biological target: T1, large cytoplasmic segment C45 of NKA (C45 loop, residues L354-I777) (Mus musculus, UniProt Q8VDN2); experiment: Fluorescence spectroscopy of interaction with isolated large cytoplasmic segment C45; assay type: binding; settings: 5 μM species; for Fluorescence intensity increase in the presence of C45: 5 μM C45, pH 7.4, excitation 380 nm
T1 construct: (His)6-tag (N); made in house; host or cells: E. coli BL21
Experimental: The large cytoplasmic segment connecting the transmembrane helices 4 and 5 (C45 loop, residues L354-I777 of the mouse brain sequence) with a (His)6-tag at the N-terminus was expressed in E. coli BL21 (Promega, USA) and purified using a Co^2+-based affinity resin (Clontech, USA) as described previously (Grycova et al., [2009]). Immediately after elution, the protein was dialyzed into 20 mM Tris, 140 mM NaCl, pH 7.4 buffer and stored at −20°C.
Spectroscopic experiments were performed in 20 mM Tris, 140 mM NaCl, pH 7.4 buffer. SCH, DHSCH and DHSD as well as protein C45 were diluted to 5 μM concentration.
Fluorescence emission spectra were measured using Fluorolog-3 (Horiba Scientific, USA). The spectra were scanned with a step of 1 nm, both excitation- and emission bandpass 5 nm and integration time 1 s. For SCH, the excitation was 325 nm and emission was recorded in the 340–600 nm interval, for DHSCH and DHSD, the excitation wavelength was 380 nm and spectra were scanned in the 400–600 nm interval. Signal from pure buffer was subtracted as a background.

[2] = Solubility (qualitative remarks); assay type: physicochemical; settings: NKA activity assay
Na+/K+-ATPase (NKA) [3] = biological target: T2, Na+/K+-ATPase (NKA) (Sus scrofa, UniProt P05024); experiment: Ouabain-sensitive ATPase activity of NKA (Baginsky assay); assay type: biochemical, porcine; settings: for n, Hill coefficient: fit of NKA inhibition curve to logistic function; for IC50: ouabain-sensitive ATPase activity, NKA from porcine kidney, 3 mM ATP, read-out: IC50 for inhibition of the NKA activity
T2 construct: The NKA was prepared from porcine kidney outer medulla; from tissue; host or cells: porcine kidney outer medulla
Experimental: The NKA was prepared from porcine kidney outer medulla using the method of Jorgensen and Klodos with some modifications (Jørgensen, [1988]; Klodos et al., [2002]; Kubala et al., [2014]). An isolated enzyme was pipetted into small aliquots and stored at −20°C in ISE buffer (25 mM imidazole, 250 mM sucrose, 1 mM EDTA, pH 7.4) containing SDS detergent. The molar concentration of isolated NKA was estimated using the Bradford method with consideration of MW(α + β) = 165,000 Da. The protein purity >90% was estimated from SDS-PAGE (Figure 2).
The measurements of NKA activity were performed using the Baginsky assay (Kubala et al., [2014]). The assay was performed in microwell plates in 4 replicates for each point and automated in the pipetting station Freedom EVO (Tecan, Switzerland).
(§1) The reaction buffer was composed of 325 mM NaCl, 50 mM KCl, 7.5 mM MgCl2, and 75 mM imidazole, pH 7.2. In the experiments where the K^+-dependence was estimated, the KCl concentration is ranging from 0 to 100 mM. The NKA (0.1 mg/mL) isolated from porcine kidney was mixed with reaction buffer without ATP. All inhibitors were solubilized in methanol immediately before the measurement and then premixed with the reaction buffer to the required concentration. Subsequently, 10 μL of inhibitor solution was added into 20 μL of enzyme solution and incubated for 2 min. In the control sample, only 10 μL of reaction buffer without inhibitor was added including corresponding amount of methanol. The reaction was started by the addition of ATP solution (20 μL, 7.5 mM in the stock, the final concentration in the reaction was 3 mM). The reaction proceeded for 6 min at room temperature and then was stopped by addition of 75 μL of staining solution, which was composed of 160 mM ascorbic acid, 3.7% (v/v) acetic acid, 3% (w/v) SDS, and 0.5% ammonium molybdate. The staining reaction was stopped after another 8 min by adding 125 μL of solution composed of 0.9% (w/v) bismuth citrate, 0.9% (w/v) sodium citrate and 3.7% HCl.
The Baginsky method detects a product of ATP hydrolysis, inorganic phosphate, which interacts with ammonium molybdate. The reaction results in a color change, which can be monitored as a change of absorbance at 710 nm, and was measured using microplate reader Synergy Mx (BioTek, USA). The calibration line was determined using KH2PO4 solutions, in […] concentration range.
(§2) The specific NKA activity is standardly estimated using the treatment by ouabain, which serves as a specific inhibitor of NKA. The ATPase activity decreases to less than 10% in the presence of 10 mM ouabain. This residual activity in the presence of ouabain was subtracted from the total estimated ATPase activity in ouabain-untreated samples, and all data are presented as the ouabain-sensitive ATPase activity. The IC50 values were obtained from fitting the data to the logistic function.

Na+/K+-ATPase (NKA) [4] = biological target: T2, Na+/K+-ATPase (NKA); experiment: K+-dependence of NKA activity (K+-dependent activation); assay type: biochemical, porcine
Experimental: as §1
(§3) We have tested influence of these three species on the ouabain inhibition and K^+-dependence of NKA activation. None of the species substantially influenced the IC50 for ouabain or the K^+/ouabain antagonism (Figure 5). The NKA activity is K^+-dependent and it increased with increasing concentration of potassium with K0.5(K^+) = 4.2 ± 0.6 mM.

Na+/K+-ATPase (NKA) [5] = biological target: T2, Na+/K+-ATPase (NKA); experiment: K+/ouabain antagonism: ouabain inhibition of NKA activity with or without flavonolignan; assay type: biochemical, porcine; settings: for K0.5(ouabain): in the presence of 40 μM flavonolignan; for IC50: K0.5(ouabain), no flavonolignan (row None)
Experimental: as §1, §2, §3

[6] = in the presence of 40 μM flavonolignan
[7] = 40 mM KCl (value in parentheses)

Row | SMILES | Solubility limiting the examined concentration range [2] | n, Hill coefficient (Na+/K+-ATPase (NKA) [3]) | IC50 (Na+/K+-ATPase (NKA) [3]) [µM] | K0.5(K+) for K+-dependent activation of NKA (Na+/K+-ATPase (NKA) [4]; [6]) [mM] | K0.5(ouabain) (Na+/K+-ATPase (NKA) [5]; 5 mM KCl) [µM] | K0.5(ouabain) (Na+/K+-ATPase (NKA) [5]; [7]) [µM] | also measured
1 | COc1cc(C2Oc3cc(-c4oc5cc(O)cc(O)c5c(=O)c4O)ccc3OC2CO)ccc1O (centres unmarked) [DHSB] | lower solubility | 0.5 ± 0.1 | 900 ± 800 |  |  |  | 
2 | C[C@@H]1O[C@@H](O[C@H]2C[C@@H](O)[C@]3(CO)[C@H]4[C@H](O)C[C@]5(C)[C@@H](C6=CC(=O)OC6)CC[C@]5(O)[C@@H]4CC[C@]3(O)C2)[C@H](O)[C@H](O)[C@H]1O [ouabain, reference compound] |  |  |  |  |  |  | remaining activity at 10000 µM (Na+/K+-ATPase (NKA) [3]; read-out: ATPase activity remaining in the presence of ouabain): < 10%; K0.5(K+) for K+-dependent activation of NKA (Na+/K+-ATPase (NKA) [4]; in the presence of ouabain): 14.8 ± 0.1 mM; IC50 (Na+/K+-ATPase (NKA) [5]; 5 mM KCl): 2.6 ± 1.3 µM; IC50 (Na+/K+-ATPase (NKA) [5]; [7]): 23 µM
3 | O=c1c(O)c(-c2ccc(O)c(O)c2)oc2cc(O)cc(O)c12 [QUE, quercetin] |  |  | > 1000 |  |  |  | 
4 | COc1cc(C2Oc3c(O)cc(-c4oc5cc(O)cc(O)c5c(=O)c4O)cc3C2CO)ccc1O (centres unmarked) [DHSCH, dehydrosilychristin] |  | 0.8 ± 0.1 | 38 ± 8 | 4 ± 1 | 1.5 ± 0.5 | 24 ± 6 | Fluorescence intensity increase in the presence of C45 [1]: ca. 3 times
5 | O=C1c2c(O)cc(O)cc2OC(c2ccc(O)c(O)c2)C1O (centres unmarked) [TAX, taxifolin] |  |  | > 1000 |  |  |  | 

Further lines, with some results ahead:

Row | Solubility limiting the examined concentration range [2] | n, Hill coefficient (Na+/K+-ATPase (NKA) [3]) | IC50 (Na+/K+-ATPase (NKA) [3]) [µM] | K0.5(K+) for K+-dependent activation of NKA (Na+/K+-ATPase (NKA) [4]; [6]) [mM] | K0.5(ouabain) (Na+/K+-ATPase (NKA) [5]; 5 mM KCl) [µM] | K0.5(ouabain) (Na+/K+-ATPase (NKA) [5]; [7]) [µM] | SMILES | also measured
6 | lower solubility | 0.6 ± 0.1 | 36 ± 14 | 3 ± 2 | 3.3 ± 1.4 | 19 ± 7 | COc1cc(C2C3C=C(c4oc5cc(O)cc(O)c5c(=O)c4O)C4C2COC4(O)C3=O)ccc1O (centres unmarked) [DHSD, dehydrosilydianin] | Fluorescence intensity increase in the presence of C45 [1]: three-fold
7 | lower solubility |  | > 1000 |  |  |  | COc1cc(C2Oc3cc([C@H]4Oc5cc(O)cc(O)c5C(=O)[C@@H]4O)ccc3OC2CO)ccc1O (some centres unmarked) [SB, silybin] | 
8 | lower solubility |  | > 1000 |  |  |  | COc1cc([C@@H]2[C@H]3CO[C@@]4(O)C(=O)[C@@H]2C=C([C@H]2Oc5cc(O)cc(O)c5C(=O)[C@@H]2O)[C@@H]34)ccc1O [SD, silydianin] | 
9 |  | 0.6 ± 0.1 | 110 ± 40 | 8 ± 5 | 4.0 ± 1.7 | 18 ± 2 | COc1cc(C2Oc3c(O)cc([C@H]4Oc5cc(O)cc(O)c5C(=O)[C@@H]4O)cc3C2CO)ccc1O (some centres unmarked) [SCH, silychristin] | Fluorescence quantum yield increase in the presence of C45 compared to the free species ([1]; 5 μM C45, pH 7.4): more than 1000 times
